This test concerns MTT (mouse pheochromocytoma). The test is described as follows: IC50 of cell viability (ATP content). To be noted: (24 or 48 h). The method in brief:
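CellTiter-Glo ATP luminescence, read after 15 minutes, was used to assess MTT mouse pheochromocytoma cells treated for 24 or 48 hrs with library compounds (final 0.5 nM to 46 µM, 8 concentrations). The cells had been plated at 5 µl of 200,000 cells/ml per well in white 1536-well plates in DMEM with 5% FBS and 1% horse serum and cultured overnight at 37°C, 5% CO2. Normalisation set positive-control wells to 100% and DMSO wells to 0%. The IC50 was then determined by four-parameter logistic fitting.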

Structures can show the parent of a compound that is named as a salt.

As to `C\C(C)=C\CC1C(=O)N(N(C1=O)C2=CC=CC=C2)C3=CC=CC=C3` [Feprazone], the “IC50 of cell viability” value was over 46 µM. In the case of `c1ccc2c(c1)sc1ccccc12` [DIBENZOTHIOPHENE] it was over 46 µM. In the case of `CCCC[C@H]1C(=O)N(c2ccccc2)N(c2ccc(O)cc2)C1=O` [Oxyphenbutazone] it was over 46 µM; in that of `Cc1onc(-c2c(Cl)cccc2Cl)c1C(=O)N[C@@H]1C(=O)N2[C@@H]1SC(C)(C)[C@@H]2C(=O)[O-]` [Dicloxacillin sodium salt monohydrate], over 46 µM.

Take `CCN(CC)C(=O)c1ccc(O)c(OC)c1` [Vanillic acid diethylamide]: the “IC50 of cell viability” value was over 46 µM. Take `Cl.NCCc1cc(O)c(O)cc1O` [OXIDOPAMINE HYDROCHLORIDE]: the “IC50 of cell viability” value was over 46 µM. In the case of `C/C(=C\c1csc(C)n1)[C@@H]1C[C@@H]2O[C@]2(C)CCC[C@H](C)[C@H](O)[C@@H](C)C(=O)C(C)(C)[C@@H](O)CC(=O)O1` [EPOTHILONE B] it was over 46 µM; in that of `O=C(O)CCCO`, over 46 µM.

`Cc1c(C(C)C)c(=O)n(-c2ccccc2)n1C` [ISOPROPYLANTIPYRINE]: the “IC50 of cell viability” value is over 46 µM.

Consider `C[N+]1(C)CCC[C@H](OC(=O)C(O)(c2ccccc2)c2ccccc2)C1` [Mepenzolate bromide], for which the “IC50 of cell viability” value is over 46 µM. As to `COc1ccc2c3c1O[C@H]1C(=O)CC[C@H]4[C@@H](C2)N(C)CC[C@]314` [HYDROCODONE BITARTRATE], the “IC50 of cell viability” value was over 46 µM. For `O=S(=O)(O)NC1CCCCC1` [Cyclamic acid], the “IC50 of cell viability” value is over 46 µM. In the case of `CC(C)c1cc2c(cc1[S+](=O)([O-])O)[C@@]1(C)CCC[C@@](C)(C(=O)O)[C@@H]1CC2` [ECABET SODIUM] it was over 46 µM.

On to `CC(=O)O.N=C(N)NCCCC(NC(=O)C1CCCN1C(=O)C1CSSCCC(=O)NC(Cc2ccc(O)cc2)C(=O)NC(Cc2ccccc2)C(=O)NC(CCC(N)=O)C(=O)NC(CC(N)=O)C(=O)N1)C(=O)NCC(N)=O.O.O.O` (stereo not given) [DESMOPRESSIN], for which the “IC50 of cell viability” value is over 46 µM. With `CCN(CC)CCOc1ccc2c(c1)C(=O)c1cc(OCCN(CC)CC)ccc1-2` [TILORONE], the “IC50 of cell viability” value was over 46 µM. `O=C(OCc1ccccc1)c1cccnc1` [BENZYL NICOTINATE]: the “IC50 of cell viability” value is over 46 µM. `NC(CSCC(=O)O)C(=O)O` (stereo not given) [CARBOCISTEINE]: the “IC50 of cell viability” value is over 46 µM.

As for `O=S(=O)([O-])C(F)(F)C(F)(F)C(F)(F)C(F)(F)F` [Potassium nonafluoro-1-butanesulfonate], the “IC50 of cell viability” value is over 46 µM. In the case of `CC(=O)NCCCCCC(=O)O` [ACEXAMIC ACID] it was over 46 µM. With `COc1cc2c(c(OC)c1OC)-c1c(cc3c(c1OC)OCO3)C[C@@H](C)[C@](C)(O)C2` [Gomisin A], the “IC50 of cell viability” value was over 46 µM.

On to `N#CCCN.N#CCCN.O=C(O)/C=C/C(=O)O` [3-Aminopropionitrile fumarate], for which the “IC50 of cell viability” value is over 46 µM. In the case of `C[C@@H]1CC2C3CCC4=CC(=O)C=C[C@]4(C)[C@@]3(F)[C@@H](O)C[C@]2(C)[C@@]1(O)C(=O)COC(=O)c1cccc(S(=O)(=O)[O-])c1` (stereo not given in full) [DEXAMETHASONE METASULFOBENZOATE SODIUM] it was over 46 µM. For `CC1(C)S[C@@H]2[C@H](NC(=O)CC3=CC=CC=C3)C(=O)[N@@]2[C@@H]1C(O)=O` [Capicillin], the “IC50 of cell viability” value is over 46 µM.

As for `CCN(CC)CCNC(=O)COc1ccc(Cl)cc1` [CLOFEXAMIDUM], the “IC50 of cell viability” value was over 46 µM.

In the case of `CCOC(=O)N1\C=C/N(C)C1=S` [Carbimazole], the “IC50 of cell viability” value is over 46 µM. In the case of `CCCCC(CC)CCC(CC(C)C)OS(=O)(=O)[O-]` (stereo not given) [NiaproofÆ 4] it was over 46 µM; in that of `CN(C)CCC(c1ccc(Cl)cc1)c1ccccn1` (stereo not given) [dexchlorpheniramine], over 46 µM.

For the compound `C[n+]1ccccc1/C=N\O` [Pralidoxime chloride], the “IC50 of cell viability” value was over 46 µM. In the case of `C[C@]\12CCC(=O)\C=C1CC[C@@H]3[C@@H]2CC[C@@]4(C)[C@H]3CC[C@]4(O)C(=O)CO` [Cortexolone] it was over 46 µM; in that of `CN1C(=O)CC[S+](=O)([O-])C1c1ccc(Cl)cc1` (stereo not given) [CHLORMEZANONE], over 46 µM. In the case of `CC(=O)Nc1nnc([S+](N)(=O)[O-])s1` [Acetazolamide] it was over 46 µM; in that of `CC[C@H](c1ccccc1)c1noc(CCN(CC)CC)n1` [Proxazole citrate], over 46 µM; in that of `COc1ccc2[nH]c([S+]([O-])Cc3ncc(C)c(OC)c3C)nc2c1` (stereo not given) [Omeprazole], over 46 µM. For `CN[C@@H]1CCc2[nH]c3ccc(C(N)=O)cc3c2C1.O.O=C(O)CCC(=O)O` [Frovatriptan Succinate Monohydrate], the “IC50 of cell viability” value was over 46 µM.

On to `COc1cc(OC)c(C(=O)CCCN2CCCC2)c(OC)c1` [Buflomedil hydrochloride], for which the “IC50 of cell viability” value is over 46 µM. In the case of `CCCCCCCCCCCCCCCC(=O)OC(C)C` [Hexadecanoic acid, 1-methylethyl ester] it was over 46 µM; in that of `OC1\C=C/C2[C@H]3CC4=C5C(=C(O)C=C4)OC1[C@@]25CCN3` (stereo not given in full) [N-Normorphine], over 46 µM.

Take `O=C(NNCNNC(=O)c1ccncc1)c1ccncc1` [Metazida]: the “IC50 of cell viability” value was over 46 µM. In the case of `CC(=O)CCCCn1c(=O)c2c(ncn2C)n(C)c1=O` [Pentoxifylline] it was over 46 µM; in that of `N[S+](=O)([O-])c1cc2c(cc1Cl)NCN[S+]2(=O)[O-]` [HYDROCHLOROTHIAZIDE], over 46 µM; in that of `CCCCCCCCCCCCCCCC(=O)OC[C@@H](COP(=O)([O-])OCC[N+](C)(C)C)OC(=O)CCCCCCCCCCCCCCC` [2,3-Dipalmitoyl-sn-glycero-1-phosphocholine], over 46 µM. In the case of `CC(=O)Nc1ccc(C(=O)O)cc1` [p-Acetamidobenzoic acid] it was over 46 µM; in that of `NC(=O)N/N=C/c1ccc([N+](=O)[O-])o1` [Nitrofurazone], over 46 µM; in that of `CN1CCN(c2c(F)cc3c(=O)c(C(=O)O)cn(CCF)c3c2F)CC1` [FLEROXACIN], over 46 µM. On to `Cc1nc([N+](=O)[O-])cn1-c1ccc([N+](=O)[O-])cc1` [Nitrefazole], for which the “IC50 of cell viability” value is over 46 µM. Take `C=NC(C(=O)NC1C(=O)N2C1SC(C)(C)C2C(=O)[O-])c1ccccc1.[Na+]` (stereo not given) [METAMPICILLIN SODIUM]: the “IC50 of cell viability” value was over 46 µM.

As to `CC1CCN(CCCC(=O)c2ccc(F)cc2)CC1` [MELPERONUM], the “IC50 of cell viability” value was over 46 µM. For `COC\1=C\C=C/2[C@H]3CC4=C5C(=C(OC)C=C4)OC1[C@@]25CCN3C` (stereo not given in full) [Thebaine], the “IC50 of cell viability” value was over 46 µM. Turning to `NC(COP(=O)(O)O)C(=O)O` (stereo in doubt) [O-PHOSPHO-L-SERINE], the “IC50 of cell viability” value is over 46 µM. With `CN1[C@@H]2CCC[C@@H]1CC(NC(=O)c1nn(C)c3ccccc13)C2` (stereo not given in full) [Granisetron Hydrochloride], the “IC50 of cell viability” value was over 46 µM. In the case of `CC(C)[N+]1(C)[C@@H]2CC[C@H]1CC(OC(=O)C(CO)c1ccccc1)C2` (stereo not given in full) [Ipratropium bromide monohydrate] it was over 46 µM. Turning to `Cn1cc(NC(=O)c2cc(NC(=O)c3cc(NC=O)cn3C)cn2C)cc1C(=O)NCCC(=N)N` [DISTAMYCIN A], the “IC50 of cell viability” value is over 46 µM. On to `Cc1ccc([S+](=O)([O-])NC(=O)NC(C)Cc2ccccc2)cc1` (stereo not given) [TOSIFENUM], for which the “IC50 of cell viability” value was over 46 µM.

On to `OCCN1CCN(CC/C=C2\c3ccccc3Sc3ccc(Cl)cc32)CC1` [Zuclopenthixol hydrochloride], for which the “IC50 of cell viability” value was over 46 µM.

Consider `CC/C=C(/C(=O)N[C@@H]1C(=O)N2C(C(=O)OCOC(=O)C(C)(C)C)=C(COC(N)=O)CS[C@H]12)c1csc(N)n1` [Cefcapene pivoxil HCl], for which the “IC50 of cell viability” value was over 46 µM. Consider `C[C@]12CC[C@@H]3c4ccc(O)cc4CC[C@H]3[C@@H]1C[C@H](O)C2O` (stereo not given in full) [Epiestriol], for which the “IC50 of cell viability” value was over 46 µM.

As to `CN1CCN(c2cc3c(nn2)Oc2ccccc2N3C)CC1` [Pipofezine], the “IC50 of cell viability” value was over 46 µM.

With `C#CCN(C)CCCOc1ccc(Cl)cc1Cl.Cl` [Clorgyline hydrochloride], the “IC50 of cell viability” value was over 46 µM. With `CC1NCCOC1c1ccccc1` (stereo not given) [Phenmetrazine Hydrochloride], the “IC50 of cell viability” value is over 46 µM. In the case of `NCC(O)c1cccc(O)c1` (stereo not given) [NORFENEFRINE HYDROCHLORIDE] it was over 46 µM; in that of `C=CCN1C[C@H](C)N([C@H](c2ccc(C(=O)N(CC)CC)cc2)c2cccc(OC)c2)C[C@H]1C` [SNC 80], over 46 µM; in that of `CN1CCN=C(c2ccccc2)c2cc(Cl)ccc21` [Medazepam], over 46 µM. For `CCN(CCCc1ccccc1)CCCc1ccccc1.O=C(O)CC(O)(CC(=O)O)C(=O)O` [Alverine citrate salt], the “IC50 of cell viability” value is over 46 µM. As for `CCC[C@@H]1C[C@@H](C(=O)N[C@@H]([C@H]2O[C@H](SC)[C@H](O)[C@@H](O)[C@H]2O)[C@@H](C)O)N(C)C1` [Lincomycin hydrochloride], the “IC50 of cell viability” value is over 46 µM. In the case of `CCN1\C=C(\C(O)=O)C(=O)C2=C1N=C(N3CCNCC3)C(=C2)F` [Enoxacin] it was over 46 µM.

Source of the values: the supplement of paper PMC3974653.
